The record followed here is patent EP0181109B1, “N6-benzopyrano- and benzothiopyrano-adenosines” (WARNER-LAMBERT COMPANY, priority 1984, dated 1986).

This assay deals with Carrageenan pleurisy. Put plainly: Carrageenan Pleurisy Assay. In kind it is in vivo. The conditions noted are these: IP route, rat. On the procedure:
Assessment of another activity is provided by the carrageenan pleurisy assay. This assay indicates antiinflammatory activity. Carrageenan pleurisy is induced as previously described by Carter, G. W., et al., in J. Pharm. Pharmacol 34:66-67, 1982. Carrageenan ([…]) is injected intrapleurally in a 0.25 ml volume of pyrogen-free saline. Four hours later, the rats are sacrificed and 2 ml of a phenol red solution (325 mg phenol red in 1 liter of 0.05 M phosphate buffered saline) are added to each pleural cavity. The contents of the cavities are mixed and transferred to glass test tubes. A 50 pl aliquot is removed from each tube and exudate cells are counted after red blood cells lysis (with Zapoglobin; Coulter Electronics, Hialeah FL) using a Coulter model ZBI counter. The remaining exudate-phenol red mixture is centrifuged at […] for 15 minutes. One hundred pl of the supernatent fluid is diluted with 3.9 ml of phosphate buffer (0.072 M of tribasic sodium phosphate Na3PO4·12H2O, in water) and the absorbance is measured at 650 nm.
Exudate volume is calculated as follows: [formula] where V1 = unknown volume of exudate, V2 = volume of dye added to cavity (2 ml), A1 = absorbance of exudate (assumed to be zero), A2 = absorbance of the phenol red solution, A3 = absorbance of exudate and phenol red solution.
Inhibition of exudate or formation is calculated by the following equations: • % inhibition (exudate) = [formula] • % inhibition (cell count) = [formula] ID50 values are calculated by Probit analysis.
The compound of Example 1 was adminstered one hour prior to carrageenan injection.

Consider `OC[C@H]1O[C@@H](n2cnc3c(NC4COc5c(Cl)cccc5C4)ncnc32)[C@H](O)[C@@H]1O` (stereo partly shown) [Example 5], for which the “% Inhibition Exudate” value runs as follows: (3 mg/kg) 22.7%; (10 mg/kg) 40.2%. Besides, the “% Inhibition WBC” value (3 mg/kg) was found to be 27.2% and the “% Inhibition WBC” value (10 mg/kg) came to 68.0%.
As to `COc1ccc2c(c1)CC(Nc1ncnc3c1ncn3[C@@H]1O[C@H](CO)[C@@H](O)[C@H]1O)CO2` (stereo partly shown) [Example 6], for the setting “1 mg/kg”, the “% Inhibition Exudate” value is reported as 50.9% and the “% Inhibition WBC” value is reported as 49.8%. Under “3 mg/kg”, the “% Inhibition Exudate” value is 42.2% and the “% Inhibition WBC” value amounted to 37.5%.
As to `Cc1cc2c(cc1C)OCC(Nc1ncnc3c1ncn3[C@@H]1O[C@H](CO)[C@@H](O)[C@H]1O)C2` (stereo partly shown) [Example 9, N^6-[6,7-Dimethyl-3-chromanylamino]adenosine], the “% Inhibition Exudate” value runs as follows: (3 mg/kg) 12.5%; (30 mg/kg) 31.9%. Moreover, the “% Inhibition WBC” value by setting is: (3 mg/kg) 13.0%; (30 mg/kg) 30.6%.
With `OC[C@H]1O[C@@H](n2cnc3c(NC4CCSc5ccccc54)ncnc32)[C@H](O)[C@@H]1O` (stereo partly shown) [Example 15], under “1 mg/kg”, the “% Inhibition Exudate” value was 13.5% and the “% Inhibition WBC” value is -10.7%. Moreover, where the note is “10 mg/kg”, the “% Inhibition Exudate” value came to 63.9% and the “% Inhibition WBC” value is given as -16.9%.
